Source: PubChem BioAssay (NCI)
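Tested at 5 concentrations; 48 h exposure; 96-well plates; endpoints linearly interpolated, else capped at highest concentration. TGI is the concentration that stops growth completely.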

Key:
Assay in all cases: growth of human tumour cells (NCI), 48 h
A498 renal = test system: A498 renal
UACC-62 melanoma = test system: UACC-62 melanoma
M14 melanoma = test system: M14 melanoma
NCI-H522 lung = test system: NCI-H522 lung
IGROV1 ovarian = test system: IGROV1 ovarian
OVCAR-3 ovarian = test system: OVCAR-3 ovarian
CCRF-CEM leukemia = test system: CCRF-CEM leukemia
MOLT-4 leukemia = test system: MOLT-4 leukemia
HOP-62 NSCLC = test system: HOP-62 NSCLC
OVCAR-5 ovarian = test system: OVCAR-5 ovarian
MDA-MB-231 breast = test system: MDA-MB-231 breast
SK-OV-3 ovarian = test system: SK-OV-3 ovarian
ACHN renal = test system: ACHN renal
EKVX NSCLC = test system: EKVX NSCLC
MCF7 breast = test system: MCF7 breast
SW-620 colon = test system: SW-620 colon
786-0 renal = test system: 786-0 renal
NCI-H460 lung = test system: NCI-H460 lung
NCI/ADR-RES ovarian = test system: NCI/ADR-RES ovarian
HS 578T breast = test system: HS 578T breast

Compound | TGI (A498 renal) [µM] | TGI (UACC-62 melanoma) [µM] | TGI (M14 melanoma) [µM] | TGI (NCI-H522 lung) [µM] | TGI (IGROV1 ovarian) [µM] | TGI (OVCAR-3 ovarian) [µM] | TGI (CCRF-CEM leukemia) [µM] | TGI (MOLT-4 leukemia) [µM] | TGI (HOP-62 NSCLC) [µM] | TGI (OVCAR-5 ovarian) [µM] | TGI (MDA-MB-231 breast) [µM] | TGI (SK-OV-3 ovarian) [µM] | TGI (ACHN renal) [µM] | TGI (EKVX NSCLC) [µM] | TGI (MCF7 breast) [µM] | TGI (SW-620 colon) [µM] | TGI (786-0 renal) [µM] | TGI (NCI-H460 lung) [µM] | TGI (NCI/ADR-RES ovarian) [µM] | TGI (HS 578T breast) [µM]
C=C(Cl)C(Br)(CBr)CCC(Br)C(C)(C)Br (centres undefined) | > 10 | > 10 | > 10 | > 10 | 3.68 | > 10 | > 10 | > 10 | > 10 | > 10 | 3.38 | > 10 | > 10 | > 10 | 5.32 | 9.33 | 3.08 |  |  | 
O=S1c2ccc(Cl)cc2CC(SSC2Cc3cc(Cl)ccc3S(=O)c3ccccc32)c2ccccc21 (centres undefined) |  | > 100 | > 100 | > 100 | > 100 | > 100 | > 100 | > 100 | > 100 | > 100 |  | > 100 | > 100 | > 100 |  | > 100 | > 100 | > 100 |  | 
O=C(/C=C\c1ccccc1-c1ccccc1)c1ccccc1 | > 100 | > 100 | > 100 | > 100 | > 100 | > 100 | > 100 | > 100 | > 100 | > 100 | > 100 | > 100 | > 100 | > 100 |  | > 100 | > 100 | > 100 | > 100 | > 100
CC(CCC(=O)O)[C@H]1CCC2[C@H]3C(CC(=O)[C@@]21C)[C@@]1(C)CCC(O)C[C@H]1C[C@@H]3O (some centres undefined) | > 100 | > 100 | > 100 | > 100 | > 100 |  | > 100 | > 100 | > 100 | > 100 | > 100 |  | > 100 | > 100 | > 100 | > 100 | > 100 | > 100 | > 100 | 
CC(C)N1CCCOC(c2ccc([N+](=O)[O-])cc2)O1 (centres undefined) | > 100 | > 100 | > 100 | > 100 | > 100 | > 100 | > 100 | > 100 | > 100 | > 100 | > 100 | > 100 | > 100 | > 100 | > 100 | > 100 | > 100 | > 100 | > 100 | 
COc1ccc(NC(C)=O)cc1N1C(=O)/C(=C\c2cc(OC)c(OC)c(OC)c2)S(=O)(=O)C1c1ccccc1 (centres undefined) | > 100 | > 100 | > 100 | > 100 | > 100 | > 100 | > 100 | > 100 | > 100 | > 100 | > 100 | > 100 | > 100 | > 100 | > 100 | > 100 | > 100 | > 100 | > 100 | 
COc1cc(CCCC(O)COc2cccc3c2C2(O)CCCCCC32)cc(OC)c1 (centres undefined) | 34.1 | 30.6 | 35.7 | 42.1 | 28.5 |  | > 100 | 48.2 | 28.7 | 31.5 |  | 38.5 | 29.4 | 30.6 |  | 31.6 | 28.7 | 34.7 |  | 
O=C(Nc1ccccc1)C(=O)C(C(=O)c1ccccc1)C(c1ccccc1)c1ccccc1 (centres undefined) |  | > 10 | > 10 |  | > 10 |  | > 10 | > 10 | > 10 |  | > 10 | > 10 |  | > 10 | > 10 | > 10 | > 10 |  |  | 
CNC(=O)CN(CC(N)=O)C(=O)NC | > 100 | > 100 | > 100 | > 100 | > 100 | > 100 | > 100 | > 100 | > 100 | > 100 |  | > 100 | > 100 | > 100 |  | > 100 | > 100 | > 100 |  | 
O=C(CCCN1CC=C(n2c(=O)[nH]c3ccccc32)CC1)c1cccs1 | > 100 | > 100 | > 100 | > 100 | > 100 | > 100 | > 100 | > 100 | > 100 | > 100 | > 100 | > 100 | > 100 | > 100 | > 100 | > 100 | > 100 | > 100 | > 100 | 
COc1ccc(C(CC(=O)c2ccccc2)C(=O)c2ccc3c(c2)OCO3)cc1 (centres undefined) | > 100 | > 100 | > 100 |  | > 100 |  | > 100 | > 100 | > 100 |  | > 100 | > 100 | > 100 | > 100 | > 100 | > 100 | > 100 | > 100 | > 100 | 
O=C1/C(=C/c2ccccc2)CCCC/C1=C\c1ccccc1 | > 100 | > 100 | > 100 |  | > 100 | > 100 |  | > 100 | > 100 | 97.1 |  | > 100 | > 100 | > 100 |  | > 100 | > 100 | > 100 |  | 
O=C(/C=C/c1cccs1)c1ccc(C(=O)/C=C/c2cccs2)cc1 | > 100 | > 100 | > 100 | > 100 | > 100 | > 100 |  | > 100 | > 100 | > 100 | > 100 | > 100 | > 100 | > 100 |  | > 100 | > 100 | > 100 | > 100 | > 100
O=C1c2cccnc2C(=O)c2c1nc1ccccc1c2-c1cncc(-c2c3c(nc4ccccc24)C(=O)c2cccnc2C3=O)c1 | 5.39 | 1.09 | 0.576 | 0.784 | 0.286 | 3.22 | 2.08 | 0.788 |  | 5.9 | 0.928 | 2.1 | 0.437 | 1.73 |  | 0.906 | 0.228 | 0.516 | 2.1 | 2.27
